The assay addresses Envelope glycoprotein gp160 (Human immunodeficiency virus 1, UniProt Q6QLK5). Description: cell-free HIV fusion peptide-binding blockers – biochemical, uHTS, fluorescence dequenching, […] (AID 1986).

We go through 1 compound from ChEMBL document CHEMBL1201862, “PubChem BioAssay data set” (2004).

Calls of active or inactive are those of the source. Rule as the data show it: actives have a measured IC50 and inactives only a lower limit.

Chain of Envelope glycoprotein gp160 (Q6QLK5 whole entry, the tested form may be a part): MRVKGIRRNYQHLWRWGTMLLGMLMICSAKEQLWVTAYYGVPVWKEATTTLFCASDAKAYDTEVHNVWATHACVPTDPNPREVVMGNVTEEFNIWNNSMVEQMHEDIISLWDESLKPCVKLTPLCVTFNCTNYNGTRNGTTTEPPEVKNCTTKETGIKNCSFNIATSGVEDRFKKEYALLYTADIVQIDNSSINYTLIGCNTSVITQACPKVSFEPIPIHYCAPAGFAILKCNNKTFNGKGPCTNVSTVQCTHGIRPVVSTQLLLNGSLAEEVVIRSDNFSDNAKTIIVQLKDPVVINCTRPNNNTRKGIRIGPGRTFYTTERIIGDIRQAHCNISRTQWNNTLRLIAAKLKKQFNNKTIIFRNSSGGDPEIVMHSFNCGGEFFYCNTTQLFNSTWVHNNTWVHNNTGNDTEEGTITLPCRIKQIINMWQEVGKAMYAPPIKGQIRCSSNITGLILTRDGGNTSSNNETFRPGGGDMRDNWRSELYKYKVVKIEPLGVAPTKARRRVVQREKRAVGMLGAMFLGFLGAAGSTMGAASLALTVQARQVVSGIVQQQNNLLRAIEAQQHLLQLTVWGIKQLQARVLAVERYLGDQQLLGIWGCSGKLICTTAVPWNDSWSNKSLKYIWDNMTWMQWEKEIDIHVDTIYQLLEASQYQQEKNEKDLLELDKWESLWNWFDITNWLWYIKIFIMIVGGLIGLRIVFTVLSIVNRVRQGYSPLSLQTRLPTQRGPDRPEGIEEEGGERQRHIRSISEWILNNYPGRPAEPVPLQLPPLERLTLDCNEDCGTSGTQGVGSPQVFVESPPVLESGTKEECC

In general, IC50 refers to the concentration needed to halve the response being measured. As for `Cc1ccccc1C(=O)Nc1cccc(C(=O)N/N=C/c2cc(Cl)cc([N+](=O)[O-])c2O)c1`, the IC50 is 31.3 µM (active).
